Earlier results in patent publication US20230056488A1, “COMPOSITION, ARTICLE AND METHOD FOR AFFECTING A MAMMAL” (COOLHOUSE SOURCING LLC, priority 2020, published 2023).

Legend:
[1] = oral and parenteral forms
[2] = laboratory and animal research
[3] = tested on: ionotropic glutamate receptors
[4] = in vivo

Structure (SMILES): C[S@@+](CC[C@H](N)C(=O)[O-])C[C@H]1O[C@@H](n2cnc3c(N)ncnc32)[C@H](O)[C@@H]1O [SAMe, (S)-2-amino-4-((SS)-(((2S,3S,4R,5R)-5-(6-amino-9H-purin-9-yl)-3,4-dihydroxytetrahydrofuran-2-yl)methyl)(methyl)sulfonio)butanoate]
- crossing of the blood-brain barrier / cerebrospinal fluid concentrations [1]: cross the blood-brain barrier and increase concentrations in cerebrospinal fluid

Structure (SMILES): CCCCCc1cc(O)c2c(c1)OC(C)(C)[C@@H]1CCC(C)=C[C@@H]21 [THC, tetrahydrocannabinol]
- toxicity to dogs: toxic to dogs

Structure (SMILES): CCCc1cc(O)c2c(c1)OC(C)(C)[C@@H]1CCC(C)=C[C@@H]21 [THCV, Tetrahydrocannabivarin]
- anti-inflammatory effects [2]: some anti-inflammatory effects

Structure (SMILES): CCNC(=O)CC[C@H](N)C(=O)O [Theanine, theanine]
- binding to ionotropic glutamate receptors (AMPA and kainate receptors; lesser extent NMDA) [3]: micromolar range
- crossing of the blood brain barrier [4]: cross the blood brain barrier (“BBB”) intact
